The values below come from paper PMC6630214, “Design, Synthesis and Biological Evaluation of 7-Chloro-9H-pyrimido[4,5-b]indole-based Glycogen Synthase Kinase-3β Inhibitors” (Molecules, 2019).

Some results are limits rather than exact numbers.

As a reminder, the IC50 is the concentration that gives 50% inhibition.

The target of this test is GSK-3β (Homo sapiens, UniProt P49841). Nature of the test: ADP Glo GSK-3β kinase assay. The format is biochemical. Particulars: ADP Glo kinase assay; for GSK-3β inhibition (in words): hit 1 from kinome-wide screening; for IC50: n = 2 (14b n = 5, 24 n = 3), read-out: IC50 (µM) Mean ± SEM GSK-3β. The protocol:
To extend the biological profile of this novel class of 7-chloro-9H-pyrimido[4,5-b]indole-based GSK-3β inhibitors, we tested the lead compound 14b for its ATP competition in our ADP Glo assay system.
ATP Binding Competition of Compound 14b
Compound 14b was analyzed for its competition with ATP in an ADP Glo GSK-3β assay. To
this end, a dilution series of 14b was incubated with 25 µM, 100 µM and 500 µM of ATP and
corresponding IC50 values were determined. Results and inhibition curves are listed in
Table S1. IC50 values for compound 14b in the ATP binding competition experiment.
ATP concentration [µM] GSK-3β
a IC50 values were determined in an ADP Glo kinase assay , n = 1; b n = 5.
Figure S3. Inhibition curves of compound 14b in the presence of 100 µM and 500 µM ATP.
(1 picture or pasted object on this page, not shown here)

GSK-3β, sequence (P49841 whole entry): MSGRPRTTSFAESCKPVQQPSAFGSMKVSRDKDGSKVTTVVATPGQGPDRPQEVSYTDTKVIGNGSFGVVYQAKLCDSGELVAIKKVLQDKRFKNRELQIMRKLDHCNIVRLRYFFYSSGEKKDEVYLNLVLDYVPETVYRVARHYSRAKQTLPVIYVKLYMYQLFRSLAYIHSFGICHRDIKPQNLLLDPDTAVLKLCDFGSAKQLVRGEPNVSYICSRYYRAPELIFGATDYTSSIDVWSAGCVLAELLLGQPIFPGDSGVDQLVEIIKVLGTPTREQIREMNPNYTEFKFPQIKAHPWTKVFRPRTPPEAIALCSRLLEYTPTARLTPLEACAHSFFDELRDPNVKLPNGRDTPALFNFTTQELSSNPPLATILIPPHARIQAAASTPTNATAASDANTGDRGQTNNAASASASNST

On to `C[C@@H]1CCN(C(=O)CC#N)C[C@@H]1N(C)c1ncnc2[nH]c3cc(Cl)ccc3c12` [Compound 1, 3-((3R,4R)-3-((7-Chloro-9H-pyrimido[4,5-b]indol-4-yl)(methyl)amino)-4-methylpiperidin-1-yl)-3-oxopropanenitrile], for which the “GSK-3β inhibition (in words)” value is listed as “single-digit micromolar range”.

Regarding `CN(c1ncnc2[nH]c3cc(Cl)ccc3c12)C1CCCN(C(=O)CC#N)C1` (stereo not shown) [Compound 14a, 3-(3-((7-Chloro-9H-pyrimido[4,5-b]indol-4-yl)(methyl)amino)piperidin-1-yl)-3-oxopropanenitrile], the IC50 is 1.86 ± 0.113 µM. Consider `CN(c1ncnc2[nH]c3cc(Cl)ccc3c12)C1CCCN(CCC(N)=O)C1` (stereo not shown) [Compound 14c, 3-(3-((7-Chloro-9H-pyrimido[4,5-b]indol-4-yl)(methyl)amino)piperidin-1-yl)propanamide], for which the IC50 was above 10 µM and the “GSK-3β inhibition (in words)” value is reported as “dramatic decrease in activity”. The matching figures for `COC(=O)CCN1CCCC(N(C)c2ncnc3[nH]c4cc(Cl)ccc4c23)C1` (stereo not shown) [Compound 14d, Methyl-3-(3-((7-chloro-9H-pyrimido[4,5-b]indol-4-yl)(methyl)amino)piperidin-1-yl)propanoate]: above 10 µM and “dramatic decrease in activity”. For the molecule `CCCN1CCCC(N(C)c2ncnc3[nH]c4cc(Cl)ccc4c23)C1` (stereo not shown) [Compound 14e, 7-Chloro-N-methyl-N-(1-propylpiperidin-3-yl)-9H-pyrimido[4,5-b]indol-4-amine], the half-inhibitory concentration (IC50) is above 10 µM and the “GSK-3β inhibition (in words)” value was “severe decrease in activity”. In the case of `CC(C)N1CCCC(N(C)c2ncnc3[nH]c4cc(Cl)ccc4c23)C1` (stereo not shown) [Compound 14f, 7-Chloro-N-(1-isopropylpiperidin-3-yl)-N-methyl-9H-pyrimido[4,5-b]indol-4-amine], the IC50 is above 10 µM and the “GSK-3β inhibition (in words)” value is given as “severe decrease in activity”. The matching figures for `CN(c1ncnc2[nH]c3cc(Cl)ccc3c12)C1CCCN(C2CCCC2)C1` (stereo not shown) [Compound 14g, 7-Chloro-N-(1-cyclopentylpiperidin-3-yl)-N-methyl-9H-pyrimido[4,5-b]indol-4-amine]: above 10 µM and “severe decrease in activity”.

Take `CN(c1ncnc2[nH]c3cc(Cl)ccc3c12)C1CCCN(Cc2ccco2)C1` (stereo not shown) [Compound 14h, 7-Chloro-N-(1-(furan-2-ylmethyl)piperidin-3-yl)-N-methyl-9H-pyrimido[4,5-b]indol-4-amine]: the concentration for half-maximal inhibition (IC50) is above 10 µM. On the same count and under the same terms, then `CN(c1ncnc2[nH]c3cc(Cl)ccc3c12)C1CCCN(Cc2ccncc2)C1` (stereo not shown) [Compound 14i, 7-Chloro-N-methyl-N-(1-(pyridin-4-ylmethyl)piperidin-3-yl)-9H-pyrimido[4,5-b]indol-4-amine], with above 10 µM; and `CN(c1ncnc2[nH]c3cc(Cl)ccc3c12)C1CCCN(Cc2cccc(C#N)c2)C1` (stereo not shown) [Compound 14j, 3-((3-((7-Chloro-9H-pyrimido[4,5-b]indol-4-yl)(methyl)amino)piperidin-1-yl)methyl)benzonitrile], with above 10 µM. Regarding `CN(c1ncnc2[nH]c3cc(Cl)ccc3c12)C1CCCN(CCC(F)(F)F)C1` (stereo not shown) [Compound 14k, 7-Chloro-N-methyl-N-(1-(3,3,3-trifluoropropyl)piperidin-3-yl)-9H-pyrimido[4,5-b]indol-4-amine], the IC50 was above 10 µM and the “GSK-3β inhibition (in words)” value is “inactive”. The matching figures for `CN(c1ncnc2[nH]c3cc(Cl)ccc3c12)C1CCCN(CC#N)C1` (stereo not shown) [Compound 14l, 2-(3-((7-Chloro-9H-pyrimido[4,5-b]indol-4-yl)(methyl)amino)piperidin-1-yl)acetonitrile]: above 10 µM and “inactive”. The matching figures for `CN(c1ncnc2[nH]c3cc(Cl)ccc3c12)C1CCCN(CC2CC2)C1` (stereo not shown) [Compound 14m, 7-Chloro-N-(1-(cyclopropylmethyl)piperidin-3-yl)-N-methyl-9H-pyrimido[4,5-b]indol-4-amine]: above 10 µM and “severe decrease in activity”. In the case of `CN(C)CCCN1CCCC(N(C)c2ncnc3[nH]c4cc(Cl)ccc4c23)C1` (stereo not shown) [Compound 14n, 7-Chloro-N-(1-(3-(dimethylamino)propyl)piperidin-3-yl)-N-methyl-9H-pyrimido[4,5-b]indol-4-amine], the IC50 is 3.56 ± 0.664 µM and the “GSK-3β inhibition (in words)” value is reported as “remarkably reduced GSK-3β inhibition”.

As for `CN(c1ncnc2c1c1ccc(Cl)cc1n2C)C1CCCN(CCC#N)C1` (stereo not shown) [Compound 14o, 3-(3-((7-Chloro-9-methyl-9H-pyrimido[4,5-b]indol-4-yl)(methyl)amino)piperidin-1-yl)propanenitrile], the IC50 is above 10 µM and the “GSK-3β inhibition (in words)” value was “inactive”.

Take `CN(c1ncnc2[nH]c3cc(Cl)ccc3c12)C1CCN(CCC#N)C1` (stereo not shown) [Compound 15, 3-(3-((7-Chloro-9H-pyrimido[4,5-b]indol-4-yl)(methyl)amino)pyrrolidin-1-yl)propanenitrile]: the IC50 was 7.02 ± 1.08 µM. Same read-out and setting: then `CN(c1ncnc2[nH]c3cc(Cl)ccc3c12)C1CCCN(CCC#N)CC1` (stereo not shown) [Compound 16, 3-(4-((7-Chloro-9H-pyrimido[4,5-b]indol-4-yl)(methyl)amino)azepan-1-yl)propanenitrile], with 1.54 ± 0.284 µM; and `CN(c1ncnc2[nH]c3cc(Cl)ccc3c12)C1CCN(CCC#N)CC1` [Compound 17, 3-(4-((7-Chloro-9H-pyrimido[4,5-b]indol-4-yl)(methyl)amino)piperidin-1-yl)propanenitrile], with 13.3 ± 4.39 µM.
